We go through 7 compounds from ChEMBL document CHEMBL1201862, “PubChem BioAssay data set” (2004).

Activity calls are given as the source filed them.

A short description of experiment [1]: miR-122 activators in hepatoma reporter cells, dose response, cell-based, Huh7 psiCHECK-miR122, Renilla luciferase, cherry-picked (AID 651956).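 Further: huh7 hepatoma cells stably carrying a psiCHECK-2 miR-122 sensor plasmid; renilla luciferase signal reporting endogenous miR-122 activity after 48 h compound exposure.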 In kind it is functional.
For experiment [2], the target named is T1, ATP-dependent translocase ABCB1 (Homo sapiens, UniProt P08183). In words: ABCG2 efflux pump inhibitor potency, dose response, Ig-MXP3 cells, JC-1, flow cytometry, set 2 (AID 504566).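 Further: flow cytometry median green fluorescence of retained JC-1 dye; potency of efflux pump inhibition measured as rising substrate retention.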 In kind it is functional. The conditions noted are these: read-out: EC50_MICROM_. (In general: Flow cytometry measures light scatter and fluorescence of single cells or particles in a stream.)

For experiment [3], the target named is T1, ATP-dependent translocase ABCB1. In words: ABCB1 efflux inhibitor potency, dose response, Jurkat-DNR cells, JC-1, flow cytometry, set 2 (AID 504569).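 Further: potency of pump inhibitors that raise cellular JC-1 green fluorescence up to the nicardipine level.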 Format: functional. Conditions: read-out: EC50_MICROM_.
Experiment [4] is described as follows: Vero E6 cell cytotoxicity, dose response, cytotoxicity control for non-replicating M. tuberculosis project, secondary assay (AID 492998). Format: functional, VeroE6. The conditions noted are these: Vero C1008.
The target in experiment [5] is T2, Rac GTPase-activating protein 1 (Homo sapiens, UniProt Q9H0H5).
T2 sequence (Q9H0H5 whole entry): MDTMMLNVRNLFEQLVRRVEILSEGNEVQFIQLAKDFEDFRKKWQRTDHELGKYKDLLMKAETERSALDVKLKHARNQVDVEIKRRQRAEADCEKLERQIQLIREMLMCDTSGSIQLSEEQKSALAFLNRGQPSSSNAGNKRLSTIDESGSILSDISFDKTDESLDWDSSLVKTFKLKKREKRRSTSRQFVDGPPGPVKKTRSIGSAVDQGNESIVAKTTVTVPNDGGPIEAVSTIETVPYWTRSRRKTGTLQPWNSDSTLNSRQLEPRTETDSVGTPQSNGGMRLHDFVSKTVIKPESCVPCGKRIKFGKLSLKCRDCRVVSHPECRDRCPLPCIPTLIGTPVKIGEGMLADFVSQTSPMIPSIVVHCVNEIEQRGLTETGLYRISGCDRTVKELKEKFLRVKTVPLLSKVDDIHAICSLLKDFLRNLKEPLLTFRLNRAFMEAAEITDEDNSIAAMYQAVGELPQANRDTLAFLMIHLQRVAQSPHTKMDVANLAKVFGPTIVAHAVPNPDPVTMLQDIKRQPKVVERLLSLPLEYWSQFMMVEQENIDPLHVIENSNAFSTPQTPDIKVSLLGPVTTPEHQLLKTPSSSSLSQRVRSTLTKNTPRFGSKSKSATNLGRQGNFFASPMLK
Nature of the experiment: MgcRacGAP GTPase-activating activity inhibitors, confirmation, biochemical, ADP Hunter fluorescence, primary and confirmatory (AID 624330). Format: functional.

A short description of experiment [6]: THP-1 cell cytotoxicity, dose response, cytotoxicity control for non-replicating M. tuberculosis project (AID 489025). Format: functional.
The nature of experiment [7]: MDA-MB-231 cell growth inhibition, dose response, cytotoxicity control for RAD54 inhibitor project, CellTiter-Glo luminescence, cherry-pick (AID 651692). In kind it is functional, cell-based.
A short description of the next experiment: cells. In kind it is functional.
A short description of experiment [8]: HeLa cell cytotoxicity, dose response, cytotoxicity control for MgcRacGAP inhibitor project (AID 624300). Format: functional.
Experiment [9] in a line: inhibitors of intracellular T. cruzi replication, confirmation, NIH3T3 host cells, beta-gal luminescence (AID 2044).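 Further: intracellular parasites grown in NIH/3T3 mouse fibroblasts as host cells; luminescent beta-galactosidase reporter signal from transgenic T. cruzi replicating inside host cells; inhibitors lower the luminescence signal.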 In kind it is functional, cell-based.
Experiment [10] addresses T3, DNA repair protein RAD52 homolog (Homo sapiens, UniProt P43351).
T3 sequence (P43351 whole entry): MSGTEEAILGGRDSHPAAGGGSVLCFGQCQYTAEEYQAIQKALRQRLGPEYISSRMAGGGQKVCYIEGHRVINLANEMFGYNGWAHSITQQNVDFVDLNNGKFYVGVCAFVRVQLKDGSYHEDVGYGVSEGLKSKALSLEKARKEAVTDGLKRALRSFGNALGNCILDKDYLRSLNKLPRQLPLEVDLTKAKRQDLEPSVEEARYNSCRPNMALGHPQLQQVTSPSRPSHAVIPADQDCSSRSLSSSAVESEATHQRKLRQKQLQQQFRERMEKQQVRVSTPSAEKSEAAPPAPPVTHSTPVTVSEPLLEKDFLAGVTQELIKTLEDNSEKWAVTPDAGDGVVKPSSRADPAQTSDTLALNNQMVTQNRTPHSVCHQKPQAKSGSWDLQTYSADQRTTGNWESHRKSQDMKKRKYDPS
Format: functional, biochemical.

The target in experiment [11] is T4, Short transient receptor potential channel 4 (Mus musculus, UniProt Q9QUQ5).
T4 sequence (Q9QUQ5 whole entry): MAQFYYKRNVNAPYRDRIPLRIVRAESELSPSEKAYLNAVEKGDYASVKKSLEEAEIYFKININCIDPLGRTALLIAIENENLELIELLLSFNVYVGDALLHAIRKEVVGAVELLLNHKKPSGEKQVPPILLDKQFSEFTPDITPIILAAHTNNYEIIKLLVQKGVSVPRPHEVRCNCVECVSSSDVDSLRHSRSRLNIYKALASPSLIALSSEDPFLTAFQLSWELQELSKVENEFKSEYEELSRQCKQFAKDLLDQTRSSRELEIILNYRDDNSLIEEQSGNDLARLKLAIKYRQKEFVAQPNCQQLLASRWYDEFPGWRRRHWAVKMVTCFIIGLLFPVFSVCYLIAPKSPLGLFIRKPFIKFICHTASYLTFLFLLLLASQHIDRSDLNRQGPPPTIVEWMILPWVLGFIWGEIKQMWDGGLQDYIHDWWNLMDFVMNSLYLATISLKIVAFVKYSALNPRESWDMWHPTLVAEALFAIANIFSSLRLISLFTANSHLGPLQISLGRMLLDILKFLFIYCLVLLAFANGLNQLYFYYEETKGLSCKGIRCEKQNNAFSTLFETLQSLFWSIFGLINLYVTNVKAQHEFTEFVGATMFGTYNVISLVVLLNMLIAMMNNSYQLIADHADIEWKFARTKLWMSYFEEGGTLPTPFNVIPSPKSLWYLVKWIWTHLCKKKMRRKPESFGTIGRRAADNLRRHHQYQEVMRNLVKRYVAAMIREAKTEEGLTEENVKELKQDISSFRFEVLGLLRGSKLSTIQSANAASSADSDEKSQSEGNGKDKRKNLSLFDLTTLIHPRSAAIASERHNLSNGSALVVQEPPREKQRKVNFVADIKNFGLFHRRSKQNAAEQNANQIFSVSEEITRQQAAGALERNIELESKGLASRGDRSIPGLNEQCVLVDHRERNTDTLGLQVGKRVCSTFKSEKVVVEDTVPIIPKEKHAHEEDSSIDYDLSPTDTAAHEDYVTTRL
Nature of the experiment: mouse TRPC4 channel activators, dose response, cell-based, HEK293 TRPC4/mu-opioid, Fluo-4 calcium (AID 434937). In kind it is functional.

Experiment [12] is described as follows: HepG2 cell cytotoxicity, dose response, cytotoxicity control for non-replicating M. tuberculosis project (AID 489018). In kind it is functional. Conditions: Mycobacterium tuberculosis.
A short description of experiment [13]: cytotoxicity toward NIH3T3 fibroblasts, dose response, counter-screen, cell-based, ATP luminescence, mouse fibroblasts (AID 2010).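 Further: cells exposed to compound for about 90 hours before reading.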 Format: functional. On the technique in general: The purpose of a counterscreen is to sort out artefacts and off-target activity.
The target of experiment [14] is T5, DNA repair and recombination protein RAD54-like (Homo sapiens, UniProt Q92698).
T5 sequence (Q92698 whole entry): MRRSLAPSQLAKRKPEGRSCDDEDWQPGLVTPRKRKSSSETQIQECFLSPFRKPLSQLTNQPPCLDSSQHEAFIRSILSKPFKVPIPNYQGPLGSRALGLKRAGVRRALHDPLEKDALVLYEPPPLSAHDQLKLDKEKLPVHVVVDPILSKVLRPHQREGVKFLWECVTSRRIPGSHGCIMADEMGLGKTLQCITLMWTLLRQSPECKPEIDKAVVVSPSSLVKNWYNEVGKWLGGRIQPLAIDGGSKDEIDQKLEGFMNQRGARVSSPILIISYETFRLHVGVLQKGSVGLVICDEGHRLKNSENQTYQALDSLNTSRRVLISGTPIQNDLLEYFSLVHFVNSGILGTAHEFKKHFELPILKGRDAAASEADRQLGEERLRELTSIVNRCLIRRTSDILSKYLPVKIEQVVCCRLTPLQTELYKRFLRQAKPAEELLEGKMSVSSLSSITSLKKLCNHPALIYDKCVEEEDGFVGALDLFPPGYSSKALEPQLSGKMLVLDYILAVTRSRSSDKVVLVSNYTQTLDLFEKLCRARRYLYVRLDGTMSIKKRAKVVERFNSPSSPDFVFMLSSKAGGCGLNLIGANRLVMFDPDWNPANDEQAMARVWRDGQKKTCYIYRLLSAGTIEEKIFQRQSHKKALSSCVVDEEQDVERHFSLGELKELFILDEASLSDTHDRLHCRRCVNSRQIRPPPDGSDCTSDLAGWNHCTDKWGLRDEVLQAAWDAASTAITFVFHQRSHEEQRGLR
Nature of the experiment: inhibitors of human RAD54 branch migration, confirmation, biochemical, fluorescence, cherry-picked samples, dose series (AID 651657). In kind it is functional.

Experiment [15] can be described thus: CRF-BP/CRF-R2 complex antagonists, dose response, cell-based, uHTS hits, 384-well (AID 651639). In kind it is functional, Homo sapiens. Conditions: read-out: IC50_Mean.
Experiment [16] has as its target T6, Corticotropin-releasing factor receptor 2/Corticotropin-releasing factor-binding protein (Homo sapiens, UniProt P24387+Q13324).
T6 sequence (Q13324 whole entry): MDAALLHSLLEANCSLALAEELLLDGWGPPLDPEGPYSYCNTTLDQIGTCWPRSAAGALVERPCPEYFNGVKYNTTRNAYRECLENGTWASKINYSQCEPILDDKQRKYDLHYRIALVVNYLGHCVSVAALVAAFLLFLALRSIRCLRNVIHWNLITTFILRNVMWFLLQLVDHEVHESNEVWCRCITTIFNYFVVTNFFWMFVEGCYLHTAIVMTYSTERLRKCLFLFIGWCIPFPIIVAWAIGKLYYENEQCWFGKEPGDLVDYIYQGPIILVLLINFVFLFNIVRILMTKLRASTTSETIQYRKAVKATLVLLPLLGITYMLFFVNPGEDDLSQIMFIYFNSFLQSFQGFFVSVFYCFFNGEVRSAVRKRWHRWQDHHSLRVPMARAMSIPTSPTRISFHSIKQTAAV
T6 sequence (P24387 whole entry): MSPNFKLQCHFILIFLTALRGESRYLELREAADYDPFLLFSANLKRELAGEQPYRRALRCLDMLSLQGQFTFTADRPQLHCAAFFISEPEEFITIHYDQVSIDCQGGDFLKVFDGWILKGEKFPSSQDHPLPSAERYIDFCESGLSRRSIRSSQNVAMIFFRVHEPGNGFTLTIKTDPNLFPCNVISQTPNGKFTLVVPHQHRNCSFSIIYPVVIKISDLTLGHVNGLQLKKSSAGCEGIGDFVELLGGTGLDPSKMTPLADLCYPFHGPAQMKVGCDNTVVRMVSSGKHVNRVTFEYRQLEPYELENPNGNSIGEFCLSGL
Nature of the experiment: activators of CRF receptor 2 with binding protein – uHTS hits, confirmation (AID 602473). Conditions: read-out: EC50_Mean. In kind it is functional.

Experiment [17] has as its target T6, Corticotropin-releasing factor receptor 2/Corticotropin-releasing factor-binding protein. Nature of the experiment: Dose Response confirmation of uHTS hits for small molecule antagonists of the CRF-binding protein and CRF-R2 receptor complex. Format: functional. The conditions noted are these: read-out: IC50_Mean.
Experiment [18] addresses T7, Sentrin-specific protease 8 (Homo sapiens, UniProt Q96LD8).
T7 sequence (Q96LD8 whole entry): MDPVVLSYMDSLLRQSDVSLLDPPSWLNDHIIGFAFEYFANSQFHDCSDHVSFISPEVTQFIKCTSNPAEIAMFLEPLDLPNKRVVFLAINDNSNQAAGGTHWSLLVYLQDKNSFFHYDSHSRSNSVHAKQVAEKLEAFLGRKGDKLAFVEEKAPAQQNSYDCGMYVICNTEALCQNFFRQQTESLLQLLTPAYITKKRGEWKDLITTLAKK
Format: functional.

The target in experiment [19] is T7, Sentrin-specific protease 8. In kind it is functional. This is another data set of the same source.

T1 sequence (P08183 whole entry): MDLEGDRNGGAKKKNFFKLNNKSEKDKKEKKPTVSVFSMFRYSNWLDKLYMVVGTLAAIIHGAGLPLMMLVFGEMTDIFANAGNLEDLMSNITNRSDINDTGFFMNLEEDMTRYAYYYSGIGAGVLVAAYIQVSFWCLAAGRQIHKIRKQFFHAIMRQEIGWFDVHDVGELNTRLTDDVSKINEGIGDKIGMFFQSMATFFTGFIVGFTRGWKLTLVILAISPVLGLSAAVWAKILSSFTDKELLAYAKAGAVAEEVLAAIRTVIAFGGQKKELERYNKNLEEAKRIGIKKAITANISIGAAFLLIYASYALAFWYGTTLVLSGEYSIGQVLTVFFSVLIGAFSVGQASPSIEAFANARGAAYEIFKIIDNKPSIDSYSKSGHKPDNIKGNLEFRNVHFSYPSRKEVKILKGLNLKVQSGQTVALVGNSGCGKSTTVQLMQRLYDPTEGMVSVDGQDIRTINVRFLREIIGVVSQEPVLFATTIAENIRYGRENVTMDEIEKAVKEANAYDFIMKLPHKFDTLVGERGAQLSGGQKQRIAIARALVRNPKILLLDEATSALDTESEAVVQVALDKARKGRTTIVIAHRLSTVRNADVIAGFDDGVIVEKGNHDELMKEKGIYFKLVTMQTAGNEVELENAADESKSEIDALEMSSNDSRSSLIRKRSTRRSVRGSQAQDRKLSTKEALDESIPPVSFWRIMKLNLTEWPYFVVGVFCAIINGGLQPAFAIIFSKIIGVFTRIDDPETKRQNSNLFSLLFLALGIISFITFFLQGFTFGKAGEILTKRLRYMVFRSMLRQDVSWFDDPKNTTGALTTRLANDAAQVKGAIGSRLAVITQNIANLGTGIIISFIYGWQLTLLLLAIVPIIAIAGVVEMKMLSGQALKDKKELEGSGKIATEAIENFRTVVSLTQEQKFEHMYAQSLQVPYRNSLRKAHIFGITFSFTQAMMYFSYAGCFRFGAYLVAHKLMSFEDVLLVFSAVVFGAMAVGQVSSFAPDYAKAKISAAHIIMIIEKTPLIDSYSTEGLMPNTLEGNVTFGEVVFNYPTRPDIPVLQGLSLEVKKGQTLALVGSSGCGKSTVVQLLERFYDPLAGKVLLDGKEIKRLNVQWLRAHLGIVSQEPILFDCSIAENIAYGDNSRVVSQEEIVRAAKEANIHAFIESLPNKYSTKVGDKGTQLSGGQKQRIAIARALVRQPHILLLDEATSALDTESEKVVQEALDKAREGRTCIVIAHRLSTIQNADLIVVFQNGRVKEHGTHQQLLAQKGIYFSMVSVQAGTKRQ

For the compound `C[C@H](CO)N1C[C@H](C)[C@@H](CN(C)Cc2ccc(-c3ccccc3)cc2)Oc2ncc(C#CCN(C)C)cc2C1=O`, the AC50 (commonly the concentration giving half of the maximal activity seen) in experiment [1] is 20.3 µM (active).
With `COc1ccc(-c2cc3nc(C)cc(N4CCN(C(=O)c5ccco5)CC4)n3n2)cc1`, the EC50 was 1.52 µM (active) in experiment [2] and 4.78 µM (active) in [3].
Consider `CCCCN(CC)CCNC(=O)c1cc2c(-c3ccc(Cl)cc3)nn(C)c2s1`, for which the CC50 (commonly the concentration that lowers cell viability or growth by half) in [4] is 12.9 µM (active); in experiment [6] it was 13.7 µM (active); in experiment [8], 55.5 µM (active); in experiment [12], 5.62 µM (active). Further, the IC50 in experiment [5] is 229 µM (active); in the experiment “cells” it was 9.15 µM (active). For the same compound, the AC50 was 23.7 µM (active) in experiment [7], 6.76 µM (active) in experiment [10] and 21.7 µM (active) in [14]. Besides, the EC50 was 0.809 µM (active) in experiment [9], 0.211 µM (active) in experiment [11] and 8.44 µM (active) in experiment [13].
On to `COC(=O)C[C@H]1CC[C@H]2[C@@H](COc3ccc(NC(=O)Nc4c(C)noc4C)cc3C(=O)N2C)O1`, for which, in experiment [1], the AC50 was 40.4 µM (active).
In the case of `CCCOc1ccc(C(=O)N2CCN(c3ccc(NC(=O)CC)cc3Cl)CC2)cc1`, the IC50 in experiment [15] was 16.3 µM (active); in [17], 16 µM (active). Further, the EC50 in experiment [16] is > 53 µM (inactive).
Regarding `O=C(C1CCCCC1)N1CCN(c2cc(-c3ccccc3)nc3cc(-c4cccc(Cl)c4)nn23)CC1`, the EC50 is 1.75 µM (active) in experiment [2] and 1.71 µM (active) in [3].
Take `COC(=O)CCCC1=CC2=CC(=O)C(C)(OC(=O)c3cccs3)C(=O)C2=CN1C1CC1` (stereo not drawn): the IC50 in experiment [18] is 17.3 µM (active); in experiment [19], 7.17 µM (active).
